Experimental data as given in article PMC7603469, “The biologically functional identification of a novel TIM3-binding peptide P26 in vitro and in vivo” (Cancer Chemotherapy and Pharmacology, 2020).
Where a SMILES comes first, the peptide text is derived from it.

Columns and labels:
TIM3 = biological target: T1, TIM3 (Mus musculus, UniProt Q8VIM0); assay: SPR binding, TIM3 immobilized on chip; conditions: TIM3 50 μg/mL immobilized on nanogold sensor chip (EDC/NHS), flow rate 20 μL/min for about 7 min, read-out: affinity constant (KD)
T1 construct: purchased Chimerigen CHI-MF-210T3-C050
T1 sequence (Q8VIM0 20-193 limits assumed): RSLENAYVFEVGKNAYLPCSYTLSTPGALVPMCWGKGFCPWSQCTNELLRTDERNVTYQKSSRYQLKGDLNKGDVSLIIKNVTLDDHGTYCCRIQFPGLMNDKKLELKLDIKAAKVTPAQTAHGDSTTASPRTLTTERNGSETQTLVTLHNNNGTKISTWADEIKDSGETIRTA
Description: Surface plasmon resonance (SPR) assay. The affinity identification between P26 and TIM3 was performed by immobilizing the TIM3 protein (50 μg/mL) on the surface of the nanogold sensor chip after the chip was activated by EDC/NHS. P26/Gal-9 competition assay was performed by immobilizing Gal-9 protein (25 µg/mL) on the sensor chip. Each sample was injected at a flow rate of 20 μL/min for about 7 min. KD, ka, and kd were calculated by Trace Drawer Evaluation (version 2.0).

MC38-hPD-L1 tumor = assay: Tumor growth assay, MC38-hPD-L1 tumor-bearing B-hTIM-3 humanized mice; type: in vivo, mouse; conditions: P26 5 mg/kg/d, ATE 10 mg/kg/4d, n = 7
Description: C57BL/6 mice transgenic for B-hHAVCR2 (TIM3) (Biocytogen, Beijing, China) were used to evaluate the anti-tumor activity of P26 in vivo. After 1 week of adaptive feeding, 6-week-old female mice were inoculated with 0.1 mL of MC38-hPD-L1 cells (1 × 10^6 cells) by subcutaneous injection on the right scapula followed by the measurements of tumor volume and body weight. When the average tumor volume reached about 80 mm^3, mice were randomly divided into […] groups and administrated with different drugs: (A) PBS (control), (B) ATE (PD-L1 inhibitor Atezolizumab, 10 mg/kg/4d, as the positive group), (C) P26 (5 mg/kg/d), and (D) P26 (5 mg/kg/d) plus ATE (10 mg/kg/4d). The weight and tumor volume of the mice were measured twice a week. When the body weight loss (% BWL) was above 20%, the drug was discontinued, and then, ethically acceptable execution to mice was adopted upon the failure of weight loss recovery in 72 h. The weight and volume of tumors were then analyzed.

| Molecule | Kd (TIM3) | inhibition of MC38-hPD-L1 tumor growth vs solvent control (in words) (MC38-hPD-L1 tumor; tumor nodules on day 36, Fig. 4b, c) | tumor volume inhibition rate (MC38-hPD-L1 tumor; vs PBS control, start day 10, sacrificed day 36, Fig. 4d) |
| --- | --- | --- | --- |
| CC[C@H](C)[C@H](NC(=O)[C@H](Cc1c[nH]cn1)NC(=O)[C@H](CCSC)NC(=O)[C@@H](NC(=O)[C@@H](NC(=O)[C@H](CC(C)C)NC(=O)[C@@H]1CCCN1C(=O)[C@@H](NC(=O)[C@H](CC(C)C)NC(=O)CN)[C@@H](C)CC)[C@@H](C)O)[C@@H](C)O)C(=O)NCC(=O)N[C@@H](CCCCN)C(=O)O [Peptide P26] (H-GLIPLTTMHIGK-OH) | 34.4 µM |  |  |
| ATE: PD-L1 inhibitor Atezolizumab, positive group |  | significantly inhibit the growth | 43.71% |
